Source: patent US20260001928A1 (CORTERIA PHARMACEUTICALS, priority 2022, published 2026)
*1 amine or outer side, *2 acyl side, *3 side chain or, on linkers, in order; H or OH if unused. Where a SMILES comes first, the peptide text is derived from it. Side-chain parts run from the residue outwards. [ ]: non-standard residue; d: D form. The star is where a group is joined. C20 diacid = O=C(O)CCCCCCCCCCCCCCCCCCC(=O)*; C18 diacid = O=C(O)CCCCCCCCCCCCCCCCC(=O)*; γGlu = O=C(O)[C@H](CCC(=O)[*:2])N[*:1]; NMeI = CC[C@H](C)[C@H](NC)C(=O)O; αMeL = CC(C)C[C@](C)(N)C(=O)O; AEEA = NCCOCCOCC(=O)O; Aib = CC(C)(N)C(=O)O

Key:
CFR1R receptor = target: T1, CFR1R receptor (Homo sapiens, UniProt P34998); experiment: Activity at anti-target CFR1R receptor, cAMP assay in CRF1R-overexpression CHO-K1 cells; type: cell-based; conditions: 100% = Sauvagine at 100 nM; for EC50: cAMP
T1 construct: host or cells: CHO-K1 (clone 2)
T1 sequence (P34998 24-415): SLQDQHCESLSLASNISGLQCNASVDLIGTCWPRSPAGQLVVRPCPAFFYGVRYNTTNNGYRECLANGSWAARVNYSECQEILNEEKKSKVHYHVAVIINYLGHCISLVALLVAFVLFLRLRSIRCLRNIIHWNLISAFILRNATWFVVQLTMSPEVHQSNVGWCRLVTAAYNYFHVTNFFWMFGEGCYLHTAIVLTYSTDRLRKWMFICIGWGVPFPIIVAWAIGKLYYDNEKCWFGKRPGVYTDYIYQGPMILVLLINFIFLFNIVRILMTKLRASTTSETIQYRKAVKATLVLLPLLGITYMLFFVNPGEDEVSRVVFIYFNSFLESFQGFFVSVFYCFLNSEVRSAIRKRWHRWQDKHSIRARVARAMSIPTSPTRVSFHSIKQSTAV
Method in brief: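 Grow clone 2 to near confluence at 37° C. under 5% CO2 in F12 (Hams) with 10% FBS and G418, harvest, and freeze in 10% DMSO. Thaw and plate at 4000 cells/well. Then proceed per the TeloHAEC method, normalising to Sauvagine 100 nM as maximum.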

[1] = In vitro plasma stability, human plasma; type: in vitro ADME; set-up: dose or concentration left out as unconfirmed; conditions: Human PLM, 37° C.
[2] = In vitro subcutaneous tissue supernatant (SCts) stability and metabolite identification, rat; type: in vitro ADME; set-up: remaining at 2 h: dose or concentration left out as unconfirmed; conditions: male, Sprague Dawley; rat subcutaneous tissue supernatant (SCts), 37° C, 2 h
[3] = Pharmacokinetics in male Sprague Dawley rats after subcutaneous administration; type: in vivo; conditions: plasma, rat, SC, 0.1 mg/kg
human CRF2a receptor = target: T2, human CRF2a receptor (Homo sapiens, UniProt Q13324); experiment: Activity at human CRF2a receptor, cAMP functional assay in TeloHEAC cells; type: cell-based; conditions: TeloHEAC cells stably expressing human CRF2a receptor, relative to urocortin 2 (100 nM = 100%)
T2 construct: expressed in transfected cells; host or cells: TeloHEAC cells
T2 sequence (Q13324 1-411): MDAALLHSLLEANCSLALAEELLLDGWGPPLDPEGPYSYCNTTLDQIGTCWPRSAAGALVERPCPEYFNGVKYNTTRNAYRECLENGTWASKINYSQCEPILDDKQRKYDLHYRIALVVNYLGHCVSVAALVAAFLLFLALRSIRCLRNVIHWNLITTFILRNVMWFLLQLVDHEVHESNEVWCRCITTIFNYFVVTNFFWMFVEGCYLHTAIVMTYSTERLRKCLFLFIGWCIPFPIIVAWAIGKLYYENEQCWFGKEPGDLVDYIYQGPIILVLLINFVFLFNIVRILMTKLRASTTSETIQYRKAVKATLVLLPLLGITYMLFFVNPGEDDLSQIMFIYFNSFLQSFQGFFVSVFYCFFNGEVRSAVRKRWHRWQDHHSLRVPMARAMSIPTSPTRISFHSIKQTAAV
Method in brief: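 cAMP accumulation was measured by HTRF 665/620 nm ratio after 30 min at 37° C compound exposure (16 twofold dilutions) of CRF2a-expressing TeloHEAC cells, 10000/well, in HEPES-buffered HBSS plus IBMX. Activity was normalised to urocortin 2 at 100 nM (100%), and EC50 was the concentration giving half-maximal activation.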

Row | SMILES | Emax (% I) (CFR1R receptor) | EC50 (CFR1R receptor) | remaining at 2 h [1] | remaining at 2 h [2] | AUC(0-t) [3] | Cmax [3] | EC50 (human CRF2a receptor)
1 | CC[C@H](C)[C@H](NC(C)=O)C(=O)N[C@H](C(=O)N[C@@H](CC(C)C)C(=O)N[C@@H](CO)C(=O)N[C@@H](CC(C)C)C(=O)N[C@@H](CC(=O)O)C(=O)N[C@@H](C(=O)N1CCC[C@H]1C(=O)N[C@H](C(=O)N[C@@H](CCCCN)C(=O)N[C@@](C)(CC(C)C)C(=O)N[C@@H](CCCCNC(=O)COCCOCCNC(=O)COCCOCCNC(=O)CC[C@H](NC(=O)CCCCCCCCCCCCCCCCC(=O)O)C(=O)O)C(=O)N[C@@H](CCCCN)C(=O)N[C@H](C(=O)N[C@@H](CC(C)C)C(=O)N[C@@H](CC(C)C)C(=O)N[C@@H](CCC(=O)O)C(=O)N[C@@H](CCC(N)=O)C(=O)N[C@@H](CCC(=O)O)C(=O)N[C@@H](CCCCN)C(=O)N[C@@H](CCC(N)=O)C(=O)N[C@@H](CCCCN)C(=O)N[C@@H](CCCCN)C(=O)N[C@@H](CCC(N)=O)C(=O)N[C@@H](CCCNC(=N)N)C(=O)N[C@@H](CCC(=O)O)C(=O)N[C@@H](CCC(N)=O)C(=O)N[C@@H](C)C(=O)N[C@@H](CCC(=O)O)C(=O)N[C@H](C(=O)N[C@@H](CC(N)=O)C(=O)NC(C)(C)C(=O)N[C@@H](CCC(N)=O)C(=O)N[C@H](C(=O)N[C@@H](CC(C)C)C(=O)N[C@@H](C)C(=O)N[C@@H](CCC(N)=O)C(=O)N[C@H](C(N)=O)C(C)C)[C@@H](C)CC)[C@@H](C)O)[C@@H](C)CC)[C@@H](C)CC)C(C)C)C(C)C [compound 110] (Ac-IVLSLD[dV]PIK[αMeL]K([AEEA-AEEA-γGlu-C18 diacid])KILLEQEKQKKQREQAETN[Aib]QILAQV-NH2) | 9 % I | > 250 nM | 97% | 77% | 4430 ng·h/mL | 291 ng/mL | 0.3 nM
2 | CC[C@H](C)[C@H](NC)C(=O)N[C@H](C(=O)N[C@@H](CC(C)C)C(=O)N[C@@H](CO)C(=O)N[C@@H](CC(C)C)C(=O)N[C@@H](CC(=O)O)C(=O)N[C@@H](C(=O)N1CCC[C@H]1C(=O)N[C@H](C(=O)N[C@@H](CCCCN)C(=O)N[C@@H](CC(C)C)C(=O)N[C@@H](CCCCNC(=O)COCCOCCNC(=O)COCCOCCNC(=O)CC[C@H](NC(=O)CCCCCCCCCCCCCCCCC(=O)O)C(=O)O)C(=O)N[C@@H](CCCCN)C(=O)N[C@H](C(=O)N[C@@H](CC(C)C)C(=O)N[C@@H](CC(C)C)C(=O)N[C@@H](CCC(=O)O)C(=O)N[C@@H](CCC(N)=O)C(=O)N[C@@H](CCC(=O)O)C(=O)N[C@@H](CCCCN)C(=O)N[C@@H](CCC(N)=O)C(=O)N[C@@H](CCCCN)C(=O)N[C@@H](CCCCN)C(=O)N[C@@H](CCC(N)=O)C(=O)N[C@@H](CCCNC(=N)N)C(=O)N[C@@H](CCC(=O)O)C(=O)N[C@@H](CCC(N)=O)C(=O)N[C@@H](C)C(=O)N[C@@H](CCC(=O)O)C(=O)N[C@H](C(=O)N[C@@H](CC(N)=O)C(=O)NC(C)(C)C(=O)N[C@@H](CCC(N)=O)C(=O)N[C@H](C(=O)N[C@@H](CC(C)C)C(=O)N[C@@H](C)C(=O)N[C@@H](CCC(N)=O)C(=O)N[C@H](C(N)=O)C(C)C)[C@@H](C)CC)[C@@H](C)O)[C@@H](C)CC)[C@@H](C)CC)C(C)C)C(C)C [compound 118] (H-[NMeI]VLSLD[dV]PIKLK([AEEA-AEEA-γGlu-C18 diacid])KILLEQEKQKKQREQAETN[Aib]QILAQV-NH2) | 7 % I | > 250 nM | 91% | – | 3540 ng·h/mL | 225 ng/mL | 0.6 nM
3 | CC[C@H](C)[C@H](NC)C(=O)N[C@H](C(=O)N[C@@H](CC(C)C)C(=O)N[C@@H](CO)C(=O)N[C@@H](CC(C)C)C(=O)N[C@@H](CC(=O)O)C(=O)N[C@@H](C(=O)N1CCC[C@H]1C(=O)N[C@H](C(=O)N[C@@H](CCCCN)C(=O)N[C@@H](CC(C)C)C(=O)N[C@@H](CCCCNC(=O)CC[C@H](NC(=O)CCCCCCCCCCCCCCCCCCC(=O)O)C(=O)O)C(=O)N[C@@H](CCCCN)C(=O)N[C@H](C(=O)N[C@@H](CC(C)C)C(=O)N[C@@H](CC(C)C)C(=O)N[C@@H](CCC(=O)O)C(=O)N[C@@H](CCC(N)=O)C(=O)N[C@@H](CCC(=O)O)C(=O)N[C@@H](CCCCN)C(=O)N[C@@H](CCC(N)=O)C(=O)N[C@@H](CCCCN)C(=O)N[C@@H](CCC(=O)O)C(=O)N[C@@H](CCC(N)=O)C(=O)N[C@@H](CCCNC(=N)N)C(=O)N[C@@H](CCC(=O)O)C(=O)N[C@@H](CCC(N)=O)C(=O)N[C@@H](C)C(=O)N[C@@H](CCC(=O)O)C(=O)N[C@H](C(=O)N[C@@H](CC(N)=O)C(=O)NC(C)(C)C(=O)N[C@@H](CCC(N)=O)C(=O)N[C@H](C(=O)N[C@@H](CC(C)C)C(=O)N[C@@H](C)C(=O)N[C@@H](CCC(N)=O)C(=O)N[C@H](C(N)=O)C(C)C)[C@@H](C)CC)[C@@H](C)O)[C@@H](C)CC)[C@@H](C)CC)C(C)C)C(C)C [compound 218] (H-[NMeI]VLSLD[dV]PIKLK([γGlu-C20 diacid])KILLEQEKQKEQREQAETN[Aib]QILAQV-NH2) | 24 % I | > 250 nM | 99% | 71% | 4120 ng·h/mL | 115 ng/mL | 0.11 nM
4 | CC[C@H](C)[C@H](NC)C(=O)N[C@H](C(=O)N[C@@H](CC(C)C)C(=O)N[C@@H](CO)C(=O)N[C@@H](CC(C)C)C(=O)N[C@@H](CC(=O)O)C(=O)N[C@@H](C(=O)N1CCC[C@H]1C(=O)N[C@H](C(=O)N[C@@H](CCCCN)C(=O)N[C@@H](CC(C)C)C(=O)N[C@@H](CCCCNC(=O)CC[C@H](NC(=O)CCCCCCCCCCCCCCCCCCC(=O)O)C(=O)O)C(=O)N[C@@H](CCCCN)C(=O)N[C@H](C(=O)N[C@@H](CC(C)C)C(=O)N[C@@H](CC(C)C)C(=O)N[C@@H](CCC(=O)O)C(=O)N[C@@H](CCC(N)=O)C(=O)N[C@@H](CCC(=O)O)C(=O)N[C@@H](CCCCN)C(=O)N[C@@H](CCC(N)=O)C(=O)N[C@@H](CCCCN)C(=O)NC(C)(C)C(=O)N[C@@H](CCC(N)=O)C(=O)N[C@@H](CCCNC(=N)N)C(=O)N[C@@H](CCC(=O)O)C(=O)N[C@@H](CCC(N)=O)C(=O)N[C@@H](C)C(=O)N[C@@H](CCC(=O)O)C(=O)N[C@H](C(=O)N[C@@H](CC(N)=O)C(=O)NC(C)(C)C(=O)N[C@@H](CCC(N)=O)C(=O)N[C@H](C(=O)N[C@@H](CC(C)C)C(=O)N[C@@H](C)C(=O)N[C@@H](CCC(N)=O)C(=O)N[C@H](C(N)=O)C(C)C)[C@@H](C)CC)[C@@H](C)O)[C@@H](C)CC)[C@@H](C)CC)C(C)C)C(C)C [compound 215] (H-[NMeI]VLSLD[dV]PIKLK([γGlu-C20 diacid])KILLEQEKQK[Aib]QREQAETN[Aib]QILAQV-NH2) | 19 % I | > 250 nM | – | 84% | 9410 ng·h/mL | 325 ng/mL | 0.12 nM
5 | CC[C@H](C)[C@H](NC(C)=O)C(=O)N[C@H](C(=O)N[C@@H](CC(C)C)C(=O)N[C@@H](CO)C(=O)N[C@@H](CC(C)C)C(=O)N[C@@H](CC(=O)O)C(=O)N[C@@H](C(=O)N1CCC[C@H]1C(=O)N[C@H](C(=O)N[C@@H](CCCCN)C(=O)N[C@@H](CC(C)C)C(=O)N[C@@H](CCCCNC(=O)CC[C@H](NC(=O)CCCCCCCCCCCCCCCCCCC(=O)O)C(=O)O)C(=O)N[C@@H](CCCCN)C(=O)N[C@H](C(=O)N[C@@H](CC(C)C)C(=O)N[C@@H](CC(C)C)C(=O)N[C@@H](CCC(=O)O)C(=O)N[C@@H](CCC(N)=O)C(=O)N[C@@H](CCC(=O)O)C(=O)N[C@@H](CCCCN)C(=O)N[C@@H](CCC(N)=O)C(=O)N[C@@H](CCCCN)C(=O)N[C@@H](CCCCN)C(=O)N[C@@H](CCC(N)=O)C(=O)N[C@@H](CCCNC(=N)N)C(=O)N[C@@H](CCC(=O)O)C(=O)N[C@@H](CCC(N)=O)C(=O)N[C@@H](C)C(=O)N[C@@H](CCC(=O)O)C(=O)N[C@H](C(=O)N[C@@H](CC(N)=O)C(=O)NC(C)(C)C(=O)N[C@@H](CCC(N)=O)C(=O)N[C@H](C(=O)N[C@@H](CC(C)C)C(=O)N[C@@H](C)C(=O)N[C@@H](CCC(N)=O)C(=O)N[C@H](C(N)=O)C(C)C)[C@@H](C)CC)[C@@H](C)O)[C@@H](C)CC)[C@@H](C)CC)C(C)C)C(C)C [compound 206] (Ac-IVLSLD[dV]PIKLK([γGlu-C20 diacid])KILLEQEKQKKQREQAETN[Aib]QILAQV-NH2) | 42 % I | – | – | 73% | 5770 ng·h/mL | 197 ng/mL | 0.11 nM
